Test results as given in patent US8551496B2, “Boswellia low polar gum resin extract and its synergistic compositions” (priority 2010, dated 2013).

How the values were obtained:
5-lipoxygenase (5-LOX) = settings: read-out: IC50 for the inhibition of 5-LOX; background, prior art; cited from earlier work
[1] = system: Freund's Complete Adjuvant induced paw edema; assay: Freund's Complete Adjuvant induced arthritis model, inhibition of paw edema; assay type: in vivo; settings: 10 mg/kg body weight daily (positive control); FCA-induced Sprague Dawley rats; vs CMC control

Compound	IC50 (5-lipoxygenase (5-LOX)) [µM]	Reduction in Paw edema [1] [%]
3-O-Acetyl-11-keto-β-Boswellic acid [AKBA]	1.5	
C[C@]12C=CC(=O)C=C1CC[C@@H]1[C@@H]2[C@@H](O)C[C@@]2(C)[C@H]1CC[C@]2(O)C(=O)CO [Prednisolone]		46
